Assay: scale inhibition test with respect to calcium carbonate (soluble calcium retained, 24 h at 80° C.)
Type: physicochemical
Details: 10 ppm based on active acid, 0.02M CaCl2 + 0.04M sodium bicarbonate/0.96M sodium chloride, 24-hour period, blank 12%
Protocol: To these solutions is added the candidate inhibitor in various concentrations. Fifty-ml samples of a 0.04M sodium bicarbonate/0.96M sodium chloride solution are then added with stirring. A total hardness determination is made on the mixture by adding excess standard EDTA to a sample and back titrating with standard Mg^++ solution in the presence of Eriochrome Black T indicator. The samples are placed in an 80° C. oven and 10-ml samples taken periodically from each bottle, filtered through a millipore filter, and the total hardness of the filtrates determined by titration. A blank with no inhibitor is run in an identical manner. The relative inhibition effects are shown by determining the amount of hardness (as soluble calcium) before and after heating for a 24-hour period. The amount of soluble calcium as a percent of that originally present is indicated as % inhibition.
All products and comparative runs were made using a concentration of 10 ppm based on active acid.

C[N+](C)(C)CC(O)CN(CCN(CP(=O)(O)O)CP(=O)(O)O)CP(=O)(O)O (stereo not shown) [Product Ex. 1]
% Inhibition (amount of soluble calcium as a percent of that originally present): 41.8%

— patent publication US4459241A, “Compounds containing quaternary ammonium and methylenephosphonic acid groups” (The Dow Chemical Company, priority 1983, dated 1984)
